Literature values, collected in publication PMC2912417 (Biochemistry, 2010).
Where two headings read alike, the source gives them in different places.

Columns and labels:
[1] = peptide alone

IGLMVGGVVIA [Aβ(32–42)]
Toxicity of the peptide itself (Aβ42-induced toxicity): slightly toxic itself | Aggregation / fibril formation of the peptide itself [1]: predominantly amorphous, rather than fibrillar, aggregates

KGAIIGLMVGGVVIA [Aβ(28–42)]
Toxicity of the peptide itself (Aβ42-induced toxicity; cell-viability screen): highly toxic itself

LMVGGVV [Aβ(34–40)]
Inhibition of Aβ42-induced toxicity (Aβ42-induced toxicity; cell-viability screen under similar conditions): inactive
